{"source": "paper PMC3898838", "about": "“Design, Synthesis, and Biological Evaluation of an Allosteric Inhibitor of HSET that Targets Cancer Cells with Supernumerary Centrosomes” (Chemistry & Biology, 2013)", "key": {"MCF-7 cells [1]": {"system": "MCF-7 cells", "test": "Time-lapse microscopy, mitotic fate", "type": "cell-based, human", "conditions": "MCF-7, 200 μM", "description": "Cells were synchronized in G2-M by incubation at 37°C and 5% CO2 for 24 hr with 9 μM of the CDK1 inhibitor RO-3306 (Merck). Cells were released by removal of the RO-3306 and four washings of 10 min each, at 37°C, with prewarmed culture media + 10% FBS. N1E-115 cells were transfected with siRNA (Supplemental Experimental Procedures) and imaged from 6 hr after transfection. Some RO-3306-synchronized cells were released with 200 μM CW069, 100 μM monastrol, or 0.2% DMSO, and imaging started immediately or 1 hr after treatment. Imaging was carried out for 24 hr, or for 4 hr in the case of the CW069/monastrol cotreatment. Imaging was conducted every 5 min in a humidified chamber with 37°C and 5% CO2, using a Nikon Eclipse TE2000-E microscope, and analyzed with NIS-Elements software (Nikon, Tokyo, Japan). The morphology of cells in mitosis and the mitotic fate (bipolar division, multipolar division, or cell death) were analyzed."}, "HeLa cells": {"system": "HeLa cells", "test": "Immunofluorescence after time-lapse imaging, monopolar/bipolar spindles", "type": "cell-based, human", "conditions": "200 μM CW069, 100 μM monastrol, 40 mitotic cells", "from_the_text": "Immediately after time-lapse imaging, cells were fixed and antibodies against α-tubulin, CDK5RAP2, and DAPI were employed to visualize MTs, centrosomes, and DNA, respectively. […] Control HeLa cells formed mainly bipolar spindles (92%), with two centrosomes positioned at the spindle poles on either side of the metaphase plate (Figure 6C; Table 1). Similar numbers of bipolar spindles were formed in CW069-treated cells (95%; Figure 6C; Table 1). Monastrol-treated cells almost exclusively formed monopolar spindles (97%) with one pole surrounded by DNA ([Luo et al., 2004]; Figure 6C; Table 1). Normal bipolar spindle formation was indeed restored for many cells (45%) when the HSET inhibitor CW069 was administered along with the KSP inhibitor monastrol (Figure 6C; Table 1).\nCells were plated at a seeding density of 1.2 × 10^4 cells per well in Ibidi eight-well chamber slides, incubated for 24 hr, and then treated with compound for 3 hr. Prewarmed 4% paraformaldehyde in PBS was then added to each well to fix the cells before washing with PBS. Permeabilization and blocking was performed by incubating the slides with 1% BSA, 0.3% Triton X-100, 5% goat serum in PBS (PBS/B/0.3%T+5%GS) for 1 hr while shaking them at room temperature (RT). The slides were incubated with primary antibody solutions (mouse monoclonal anti-α-Tubulin [catalog number T9026; Sigma-Aldrich] and rabbit anti-CDK5RAP2 [catalog number A300-554A; Bethyl Laboratories]) at 4°C for 16 hr. The slides were washed four times with PBS/B/0.3%T+5%GS and then incubated with secondary antibody solutions (anti-rabbit IgG Alexa Fluor 488 [catalog number A21206] and anti-mouse IgG Alexa Fluor 647 [catalog number A20990]; Invitrogen) and DAPI (catalog number D3571; Invitrogen) in deionized water (300 nM) in the dark at RT for 1 hr. After four washes with PBS/B/0.3%T+5%GS, the solution was replaced with PBS and the slides were stored at 4°C until imaging was performed. Images were gathered with the use of an ICys Research Imaging Cytometer (CompuCyte) or a tandem confocal microscope (Leica)."}, "[2]": {"target": "T1, full-length, N-terminal, 6His-tagged human HSET (Homo sapiens, UniProt Q9BW19)", "T1 sequence (Q9BW19 307-663 limits assumed)": "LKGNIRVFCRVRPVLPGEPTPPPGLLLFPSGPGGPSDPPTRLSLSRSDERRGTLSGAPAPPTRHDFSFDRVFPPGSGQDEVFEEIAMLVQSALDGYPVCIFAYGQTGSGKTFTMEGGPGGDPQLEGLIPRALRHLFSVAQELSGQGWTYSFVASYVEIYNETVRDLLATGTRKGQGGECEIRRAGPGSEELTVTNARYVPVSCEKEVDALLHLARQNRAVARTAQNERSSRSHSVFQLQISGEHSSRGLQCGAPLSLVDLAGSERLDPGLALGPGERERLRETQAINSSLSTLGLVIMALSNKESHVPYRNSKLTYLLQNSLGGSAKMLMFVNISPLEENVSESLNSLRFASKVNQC", "test": "Differential scanning fluorimetry (DSF)", "type": "binding", "conditions": "CW069 0.03125-1 mM in 4% DMSO", "description": "DSF is an inexpensive and rapid method for identifying ligands of purified proteins, and relies on the difference in protein unfolding temperature in the presence and absence of a small molecule ([Niesen et al., 2007]). The unfolding temperature is measured by the increase in fluorescence of a dye with particular affinity for the hydrophobic regions of proteins, which become exposed upon unfolding ([Niesen et al., 2007]). The difference in the transition midpoint, ΔTm, in the presence of a ligand is related to its binding affinity; however, this is not a direct measure of the binding coefficient and therefore was not used to calculate the affinity of CW069 for HSET ([Holdgate and Ward, 2005])."}, "BT549 cells": {"system": "BT549 cells", "test": "IncuCyte live-cell imaging, proliferation", "type": "cell-based, human", "conditions": "BT549, 100-350 μM", "from_the_text": "(§1) In order to ascertain whether CW069 could more broadly reduce proliferation in a range of cancer cells, we carried out IncuCyte live-cell imaging on N1E-115 cells and BT549 (with lower but marked centrosome amplification) and MCF-7 (with normal centrosome numbers) breast cancer cells. Cells were imaged for 21 hr prior to treatment with DMSO control (0.2%) and various concentrations of CW069, and then imaged for a further 36 hr. […] It could also be due to another direct or indirect effect, and the role of HSET in the survival of cancer cells with normal centrosome numbers remains to be fully understood.\n(§2) NHDF cells were obtained from PromoCell, and the N1E-115 and HeLa cells were obtained from ATCC/LGC Standards. The BT549, MCF-7 and MDA-MB-231 cells were kind gifts from the Caldas laboratory (CRUK Cambridge Institute) and were originally obtained from ATCC/LGC. All human cells were verified by STR genotyping and all tested negative for mycoplasma. […] Fluorescence was quantified using an Infinite 200 PRO plate-reader (Tecan) at a wavelength of 545 nm. […]\n(§3) For live-cell imaging, plated cells were imaged prior to treatment for 24 hr and then after treatment for 72 hr. […] Data were analyzed as the percentage of original cell confluency in order to directly compare each compound treatment with the DMSO control."}, "MCF-7 cells [3]": {"system": "MCF-7 cells", "test": "IncuCyte live-cell imaging, proliferation", "type": "cell-based, human", "conditions": "MCF-7, 100-350 μM", "from_the_text": "as §1, §2, §3"}}, "data": [{"smiles": "O=C(O)c1cc(I)ccc1NC(=O)[C@H](Cc1ccccc1)NCc1ccccc1", "note": "[CW069]", "values": [{"measurement": "bipolar division", "setting": "MCF-7 cells [1]", "value": "remained unaffected"}, {"measurement": "Bipolar Spindle (%)", "setting": "HeLa cells", "value": 95, "unit": "%"}, {"measurement": "Monopolar Spindle (%)", "setting": "HeLa cells", "value": 5, "unit": "%"}, {"measurement": "maximum HSET ΔTm", "setting": "[2]", "value": "−8.0", "unit": "°C"}, {"measurement": "cell proliferation", "setting": "BT549 cells", "value": "antiproliferative effect"}, {"measurement": "cell proliferation", "setting": "MCF-7 cells [3]", "value": "does reduce their proliferation"}]}]}
